ChEMBL document CHEMBL1135316, “Parallel solution- and solid-phase synthesis of spirohydantoin derivatives as neurokinin-1 receptor ligands” (Bioorg Med Chem Lett, 2002)

molecular target: Substance-P receptor (Homo sapiens, UniProt P25103); assay: Affinity for human Tachykinin receptor 1 expressed in CHO cells; type: cell-based
Sequence (P25103 whole entry): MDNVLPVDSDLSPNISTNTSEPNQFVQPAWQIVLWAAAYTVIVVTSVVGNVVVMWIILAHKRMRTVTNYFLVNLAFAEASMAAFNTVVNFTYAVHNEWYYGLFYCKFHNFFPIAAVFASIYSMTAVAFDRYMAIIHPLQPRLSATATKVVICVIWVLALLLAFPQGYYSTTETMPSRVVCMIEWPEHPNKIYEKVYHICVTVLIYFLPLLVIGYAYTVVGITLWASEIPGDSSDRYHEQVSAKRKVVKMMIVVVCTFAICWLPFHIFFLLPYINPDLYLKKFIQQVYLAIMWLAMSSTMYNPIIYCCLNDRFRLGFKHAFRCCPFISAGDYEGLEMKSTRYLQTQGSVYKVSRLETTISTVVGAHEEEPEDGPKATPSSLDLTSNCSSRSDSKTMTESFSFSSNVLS

Row | SMILES | Ki [nM]
1 | CN1C(=O)N(Cc2cc(C(F)(F)F)cc(C(F)(F)F)c2)C2(CCN(C(=O)c3c(Cl)cccc3Cl)CC2)C1=O | 646
2 | CN1C(=O)N(Cc2cc(C(F)(F)F)cc(C(F)(F)F)c2)C2(CCN(C(=O)c3cccc4ccccc34)CC2)C1=O | 457
3 | O=C(c1cc(C(F)(F)F)cc(C(F)(F)F)c1)N1CCC2(CC1)NC(=O)N(Cc1ccc3c(c1)OCO3)C2=O | 245
4 | O=C(c1cc(C(F)(F)F)cc(C(F)(F)F)c1)N1CCC2(CC1)NC(=O)N(CCc1c[nH]c3ccccc13)C2=O | 575
5 | CN1C(=O)N(Cc2cc(C(F)(F)F)cc(C(F)(F)F)c2)C2(CCN(C(=O)CN3CCC(Cc4ccccc4)CC3)CC2)C1=O | 3720
6 | O=C(c1cccc2ccccc12)N1CCC2(CC1)NC(=O)N(c1cc(C(F)(F)F)cc(C(F)(F)F)c1)C2=O | 339
7 | Cc1cc(C)c(C(=O)N2CCC3(CC2)NC(=O)N(c2cc(C(F)(F)F)cc(C(F)(F)F)c2)C3=O)c(C)c1 | 324

These reach a lower Ki. Values come first.

Row | Ki [nM] | SMILES
8 | 132 | CSc1ccc(N2C(=O)NC3(CCN(C(=O)c4cc(C(F)(F)F)cc(C(F)(F)F)c4)CC3)C2=O)cc1
9 | 74.1 | O=C1NC2(CCN(S(=O)(=O)CCc3cccc4ccccc34)CC2)C(=O)N1Cc1cc(C(F)(F)F)cc(C(F)(F)F)c1
10 | 45.7 | Cc1cccc(NC(=O)N2CCC3(CC2)NC(=O)N(Cc2cc(C(F)(F)F)cc(C(F)(F)F)c2)C3=O)c1
11 | 138 | O=C(c1cc(C(F)(F)F)cc(C(F)(F)F)c1)N1CCC2(CC1)NC(=O)N(Cc1cccc(-c3ccccc3)c1)C2=O
12 | 107 | N#Cc1cccc(CN2CCC3(CC2)NC(=O)N(Cc2cc(C(F)(F)F)cc(C(F)(F)F)c2)C3=O)c1
